# Where two headings read alike, the source gives them in different places.
# Experiments:
# [1] = biological target: T1, human recombinant 5-HT2C receptor (Homo sapiens, UniProt P28335); assay: Test Example 2: 5-HT2C receptor binding inhibition test ([3H]-Mesulergine; non-specific ligand Serotonin HCl); settings: human serotonin 5-HT2C receptor binding activity
# T1 construct: expressed in transfected cells; host or cells: Jump-In HEK cells (membrane preparation)
# T1 sequence (P28335 33-458): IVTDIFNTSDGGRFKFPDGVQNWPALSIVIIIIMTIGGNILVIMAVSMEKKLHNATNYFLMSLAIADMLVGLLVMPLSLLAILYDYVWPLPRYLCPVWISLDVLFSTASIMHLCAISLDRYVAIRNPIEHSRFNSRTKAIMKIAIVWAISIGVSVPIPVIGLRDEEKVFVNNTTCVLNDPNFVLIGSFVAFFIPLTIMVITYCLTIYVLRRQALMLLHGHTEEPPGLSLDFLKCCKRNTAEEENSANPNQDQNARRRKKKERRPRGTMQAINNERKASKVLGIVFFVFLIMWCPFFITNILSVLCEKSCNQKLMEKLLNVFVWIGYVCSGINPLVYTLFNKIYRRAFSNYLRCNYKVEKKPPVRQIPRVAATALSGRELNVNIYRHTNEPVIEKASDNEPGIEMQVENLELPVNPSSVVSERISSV
# Protocol: The Kd value is calculated when the lot of the cell membrane is changed. 1 mmol/L non-specific binding calculating compound dissolved in DMSO or DMSO is previously dispensed to the microplate by 0.5 µL, and the cell membrane is diluted with an Assay buffer. The radioactive ligand solution is diluted step by step, and counts are checked with a liquid scintillator. The Assay buffer containing diluted cell membranes is dispensed by 50 µL/well into the microplate. The radioactive ligand solution is then dispensed by 50 µL/well into the microplate and the plate is sealed. The microplate is allowed to stand at 37°C for 2 hours. During this time, 50 mmol/L Tris-HCl (pH 7.4) is dispensed by 50 µL/well into the GF/B UniFilter plate and allowed to stand at 4°C for 1 hour or longer. Thereafter, filtration is performed with a Cell Harvester (PerkinElmer). The radioactive ligand solution is dispensed by 10 µL/well into empty wells of the GF/B UniFilter plate. After drying the GF/B UniFilter plate at room temperature, MicroScinti20 is dispensed by 50 µL/well into the GF/B UniFilter plate, and the plate is sealed. GF/B UniFilter plate is allowed to stand at room temperature overnight. The radioactivity of [^3H]-Mesulergine bound to the 5-HT2C receptor is measured using Microbeta2 (PerkinElmer) at a measurement time of 1 min/well. The Saturation curve is drawn from the measured value, and the Kd value is calculated from the slope of the Scatchard Plot.
# A compound solution dissolved in DMSO is dispensed to a microplate by 0.5 µL, and a cell membrane and a hot ligand are each diluted with an Assay buffer. The Assay buffer containing diluted cell membrane is then dispensed by 50 µL/well into the microplate. The radioactive ligand solution is then dispensed by 50 µL/well into the microplate and the plate is sealed. The microplate is then allowed to stand at 37°C for 2 hours. During this time, 50 mmol/L Tris-HCl (pH 7.4) is dispensed by 50 µL/well into the GF/B UniFilter plate and allowed to stand at 4°C for 1 hour or longer. Thereafter, filtration is performed with a Cell Harvester (PerkinElmer). After drying the GF/B UniFilter plate at room temperature, MicroScinti20 is dispensed by 50 µL/well into the GF/B UniFilter plate, and the plate is sealed. GF/B UniFilter plate is allowed to stand at room temperature overnight. The radioactivity of [^3H]-Mesulergine bound to the 5-HT2C receptor is measured using Microbeta2 (PerkinElmer) at a measurement time of 1 min/well. Non-specific binding is calculated from the radioactivity of [^3H]-Mesulergine in the presence of 500 µmol/L Serotonin HCl of unlabeled ligand, and total binding is calculated from the radioactivity of [^3H]-Mesulergine in the absence of the compound of the present invention (Vehicle). Finally, the Ki value is calculated from the dose-response curve.
# (§1) (The binding activity of the compound according to the present invention is calculated from the following binding inhibition rate (%).) Inhibition rate (%) = [1−(c−a)/(b−a)] × 100 [formula] • a; average cpm of non-specific binding • b; average cpm of total binding • c; cpm in the presence of the test compound
# (§2) The compounds of the present invention were tested essentially as described above.
# [2] = biological target: T2, human recombinant 5-HT2A receptor (Homo sapiens, UniProt P28223); assay: Test Example 1-2: 5-HT2A receptor binding inhibition test ([3H]-Ketanserin; non-specific ligand Ketanserin)
# T2 construct: expressed in transfected cells; host or cells: Jump-In HEK cells (membrane preparation)
# T2 sequence (P28223 whole entry): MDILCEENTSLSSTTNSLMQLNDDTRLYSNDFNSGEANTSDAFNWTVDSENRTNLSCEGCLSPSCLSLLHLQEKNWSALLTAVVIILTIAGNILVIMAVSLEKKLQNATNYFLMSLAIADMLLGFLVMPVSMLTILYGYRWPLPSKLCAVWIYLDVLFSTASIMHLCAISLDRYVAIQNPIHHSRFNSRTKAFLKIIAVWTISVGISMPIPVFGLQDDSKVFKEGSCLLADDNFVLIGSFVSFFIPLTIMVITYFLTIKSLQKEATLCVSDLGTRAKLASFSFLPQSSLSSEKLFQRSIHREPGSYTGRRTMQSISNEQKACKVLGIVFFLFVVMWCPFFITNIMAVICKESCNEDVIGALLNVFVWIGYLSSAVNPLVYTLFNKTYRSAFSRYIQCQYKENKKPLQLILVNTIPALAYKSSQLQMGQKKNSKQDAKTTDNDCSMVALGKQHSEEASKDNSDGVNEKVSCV
# Protocol: The Kd value is calculated when the lot of the cell membrane is changed. 1 mmol/L non-specific binding calculating compound dissolved in DMSO or DMSO is previously dispensed to the microplate by 0.5 µL, and the cell membrane is diluted with an Assay buffer. The radioactive ligand solution is diluted step by step, and counts are checked with a liquid scintillator. The Assay buffer containing diluted cell membranes is dispensed by 50 µL/well into the microplate. The radioactive ligand solution is then dispensed by 50 µL/well into the microplate and the plate is sealed. The microplate is allowed to stand for 1.5 hours at room temperature (25°C). During this time, 50 mmol/L Tris-HCl (pH 7.4) is dispensed by 50 µL/well into the UniFilter plate and allowed to stand at 4°C for 1 hour or longer. Thereafter, filtration is performed with a Cell Harvester (PerkinElmer). The radioactive ligand solution is dispensed by 10 µL/well into empty wells of the UniFilter plate. After drying the UniFilter plate at room temperature, MicroScinti20 is dispensed by 50 µL/well into the UniFilter plate, and the plate is sealed. UniFilter plate is allowed to stand at room temperature overnight. The radioactivity of [^3H]-Ketanserin bound to the 5-HT2A receptor is measured using Microbeta2 (PerkinElmer) at a measurement time of 1 min/well. The Saturation curve is drawn from the measured value, and the Kd value is calculated from the slope of the Scatchard Plot.
# A compound solution dissolved in DMSO is dispensed to a microplate by 0.5 µL, and a cell membrane and a hot ligand are each diluted with an Assay buffer. The Assay buffer containing diluted cell membrane is then dispensed by 50 µL/well into the microplate. The radioactive ligand solution is then dispensed by 50 µL/well into the microplate and the plate is sealed. Thereafter, the microplate is allowed to stand at room temperature (25°C) for 1.5 hours. During this time, 50 mmol/L Tris-HCl (pH 7.4) is dispensed by 50 µL/well into the UniFilter plate and allowed to stand at 4°C for 1 hour or longer. Thereafter, filtration is performed with a Cell Harvester (PerkinElmer). After drying the UniFilter plate at room temperature, MicroScinti20 is dispensed by 50 µL/well into the UniFilter plate, and the plate is sealed. UniFilter plate is allowed to stand at room temperature overnight. The radioactivity of [^3H]-Ketanserin bound to the 5-HT2A receptor is measured using Microbeta2 (PerkinElmer) at a measurement time of 1 min/well. Non-specific binding is calculated from the radioactivity of [^3H]-Ketanserin in the presence of 500 µmol/L Ketanserin of unlabeled ligand, and total binding is calculated from the radioactivity of [^3H]-Ketanserin in the absence of the compound of the present invention (Vehicle). Finally, the Ki value is calculated from the dose-response curve.
# as §1, §2
# [3] = [3H]-Ketanserin; non-specific binding with 500 µmol/L Ketanserin; room temperature (25°C), 1.5 hours; read-out: h 5-HT2A Ki
# [4] = read-out: h 5-HT2A Ki; [3H]-Ketanserin; non-specific binding with 500 µmol/L Ketanserin; room temperature (25°C), 1.5 hours
smiles,measurement,setting,value
COCc1nc(C)c(-c2cc(Nc3ncc(-c4cccc(F)c4F)cc3Cl)ncc2OCCO)c(C)n1 [Compound I-259],Ki,[1],0.623 nM
same,Ki,[2]; [3],0.672 nM
Cc1nc(C)c(-c2cc(Nc3ccc(C4(C(F)(F)F)CC4)cn3)ncc2OCCO)c(C)n1 [Compound I-297],Ki,[1],4.37 nM
same,Ki,[2]; [3],2.07 nM
Cc1nc(C)c(-c2cc(Nc3ccc(OC(F)(F)F)cn3)ncc2OCCO)c(C)n1 [Compound I-295],Ki,[1],7.58 nM
same,Ki,[2]; [3],0.851 nM
Cc1cnn(C)c1-c1cc(Nc2ncc(Cl)cc2F)c(F)cc1OCCO [Compound I-160],Ki,[1],3.01 nM
same,Ki,[2]; [3],0.21 nM
Cn1ncc(Br)c1-c1nc(Nc2ccc(OC(F)(F)F)cn2)c(F)cc1OCCO [Compound I-280],Ki,[1],1.58 nM
same,Ki,[2]; [3],0.312 nM
Cc1nc(C)c(-c2cc(Nc3ncc(C(F)(F)F)cc3F)c(F)cc2OC[C@H](C)O)c(C)n1 [Compound I-197],Ki,[1],65.6 nM
same,Ki,[2]; [3],2.83 nM
Cn1ncc(Cl)c1-c1cc(Nc2ncc(OCC(F)(F)F)cc2F)ncc1OCCO [Compound I-322],Ki,[1],1.3 nM
same,Ki,[2]; [3],0.414 nM
Cn1ncc(Cl)c1-c1cc(Nc2ccc(OC(C)(F)F)cn2)ncc1OCCO [Compound I-229],Ki,[1],2.22 nM
same,Ki,[2]; [3],0.28 nM
Cn1ncc(Br)c1-c1nc(Nc2ccc(C(F)(F)F)nc2)c(F)cc1OCCO [Compound I-290],Ki,[1],17.6 nM
same,Ki,[2]; [3],0.438 nM
COCc1nc(C)c(-c2cc(Nc3ncc(-c4ccn(C(F)F)n4)cc3Cl)ncc2OCCO)c(C)n1 [Compound I-326],Ki,[1],7.23 nM
same,Ki,[2]; [3],6.26 nM
Cn1ncc(Br)c1-c1nc(Nc2ccc(C(F)(F)F)c(Cl)c2)ncc1OCCO [Compound I-351],Ki,[1],1.77 nM
same,Ki,[2]; [3],0.242 nM
Cn1ncc(Br)c1-c1nc(Nc2nc3ccc(F)cc3s2)c(F)cc1OCCO [Compound I-388],Ki,[1],7.66 nM
same,Ki,[2]; [3],0.366 nM
COCc1nc(C)c(-c2cc(Nc3ncc(-n4cc(Cl)cn4)cc3Cl)ncc2OCCO)c(C)n1 [Compound I-236],Ki,[1],0.727 nM
same,Ki,[2]; [3],1.24 nM
Cn1ncc(Br)c1-c1nc(Nc2ccc(OC(F)F)cc2)ncc1OCCO [Compound I-353],Ki,[1],0.975 nM
same,Ki,[2]; [3],0.179 nM
Cn1ncc(Br)c1-c1nc(Nc2ccc(Cl)cc2F)ncc1OCCO [Compound I-340],Ki,[1],1.38 nM
same,Ki,[2]; [3],0.212 nM
Cc1nc(C)c(-c2cc(Nc3ncc(-c4ccc(F)cc4)cc3C)ncc2OCCO)c(C)n1 [Compound I-318],Ki,[1],1.04 nM
same,Ki,[2]; [3],0.575 nM
Cc1nc(C)c(-c2cc(Nc3ncc(C(F)(F)F)cc3F)ncc2OCCO)c(C)n1 [Compound I-306],Ki,[1],5.67 nM
same,Ki,[2]; [3],1.27 nM
Cc1nc(C)c(-c2cc(Nc3ncc(OCC(F)(F)C(F)(F)F)cc3Cl)ncc2OCCO)c(C)n1 [Compound I-250],Ki,[1],2.43 nM
Cc1cc(OC(F)F)cnc1Nc1cc(-c2c(Br)cnn2C)c(OCCO)cn1 [Compound I-177],Ki,[1],0.63 nM
same,Ki,[2]; [3],0.331 nM
Cc1nc(C)c(-c2cc(Nc3ncc(C(F)(F)F)cc3C)ncc2OCCO)c(C)n1 [Compound I-389],Ki,[1],2.41 nM
same,Ki,[2]; [3],1.2 nM
COCCc1nc(C)c(-c2cc(Nc3ncc(C(F)(F)F)cc3Cl)ncc2OCCO)c(C)n1 [Compound I-217],Ki,[1],2.66 nM
same,Ki,[2]; [3],1.74 nM
Cc1nc(C2CC2)nc(C)c1-c1cc(Nc2ncc(C(F)(F)F)cc2Cl)ncc1OCCO [Compound I-206],Ki,[1],1.78 nM
same,Ki,[2]; [3],1.3 nM
Cn1ncc(C#N)c1-c1cc(Nc2ncc(OC(F)(F)F)cc2Cl)ncc1OCCO [Compound I-187],Ki,[1],2.9 nM
same,Ki,[2]; [3],0.183 nM
Cn1ncc(Br)c1-c1cc(Nc2nc3ccc(F)cc3[nH]2)c(F)cc1OCCO [Compound I-406],Ki,[1],2.48 nM
same,Ki,[2]; [3],0.463 nM
COCCOc1nc(C)c(-c2cc(Nc3ncc(C(F)(F)F)cc3Cl)ncc2OCCO)c(C)n1 [Compound I-213],Ki,[1],4.07 nM
same,Ki,[2]; [3],1.26 nM
Cn1ncc(Br)c1-c1cc(Nc2ncc(C3CC3)cn2)ncc1OCCO [Compound I-281],Ki,[1],6.55 nM
same,Ki,[2]; [3],0.668 nM
COCc1nc(C)c(-c2cc(Nc3ncc(-c4ncc(F)cc4F)cc3Cl)ncc2OCCO)c(C)n1 [Compound I-252],Ki,[1],3.17 nM
same,Ki,[2]; [3],3.95 nM
COCc1nc(C)c(-c2cc(Nc3ccc(C4CC(F)(F)C4)cn3)ncc2OCCO)c(C)n1 [Compound I-192],Ki,[1],9.15 nM
same,Ki,[2]; [3],2.31 nM
Cc1nc(COC2CCOCC2)nc(C)c1-c1cc(Nc2ncc(C(F)(F)F)cc2Cl)ncc1OCCO [Compound I-381],Ki,[1],3.58 nM
same,Ki,[2]; [3],2.66 nM
Cc1cnn(C)c1-c1nc(Nc2ccc(Cl)cc2F)c(F)cc1OCCO [Compound I-282],Ki,[1],6.19 nM
same,Ki,[2]; [3],0.223 nM
COCc1nc(C)c(-c2cc(Nc3ncc(-c4ncc(OC)cn4)cc3Cl)ncc2OCCO)c(C)n1 [Compound I-253],Ki,[1],4.42 nM
same,Ki,[2]; [3],2.74 nM
Cn1ncc(Br)c1-c1cc(Nc2ncc(Cl)cn2)ccc1OCCO [Compound I-119],Ki,[2]; [3],0.315 nM
"CC(CO)Oc1cnc(Nc2ncc(C(F)(F)F)cc2F)cc1-c1c(Br)cnn1C (single isomer, unassigned) [Compound I-225]",Ki,[2]; [4],0.396 nM
"CC(CO)Oc1cnc(Nc2ncc(C(F)(F)F)cc2F)cc1-c1c(Br)cnn1C (single isomer, unassigned) [Compound I-224]",Ki,[2]; [4],0.521 nM
Cc1nc(C)c(-c2cc(Nc3ncc(C(F)(F)F)cc3F)c(F)cc2OCCO)c(C)n1 [Compound I-146],Ki,[2]; [3],0.678 nM
